# In patent US4269971A, “Antibiotic TM-531” (Taisho Pharmaceutical Co., Ltd., priority 1978, dated 1981):
# What was measured:
# [1] = tested on: Aspergillus niger NHL 5088; test: Antimicrobial activity (MIC), agar medium; type: cell-based; conditions: potato dextrose agar
# Procedure: (§1) The antimicrobial activity of antibiotic TM-531 was determined in terms of the minimum inhibitory concentration (MIC) using a heart infusion agar medium for the determination of activity on bacteria and a potato dextrose agar medium for the determination of activity on fungi and yeast.
# Bacillus licheniformis = test: Antimicrobial activity (MIC), agar medium; type: cell-based; conditions: heart infusion agar
# Procedure: as §1
# [2] = tested on: Bacillus subtilis ATCC 6633; test: Antimicrobial activity (MIC), agar medium; type: cell-based; conditions: heart infusion agar
# Procedure: as §1
# Candida albicans = test: Antimicrobial activity (MIC), agar medium; type: cell-based; conditions: potato dextrose agar
# Procedure: as §1
# Corynebacterium xerosis = test: Antimicrobial activity (MIC), agar medium; type: cell-based; conditions: heart infusion agar
# Procedure: as §1
# [3] = tested on: Escherichia coli NIHJ C-2; test: Antimicrobial activity (MIC), agar medium; type: cell-based; conditions: heart infusion agar
# Procedure: as §1
# Micrococcus luteus NIHJ = test: Antimicrobial activity (MIC), agar medium; type: cell-based; conditions: heart infusion agar
# Procedure: as §1
# [4] = tested on: Penicillium citrinum IAM 7003; test: Antimicrobial activity (MIC), agar medium; type: cell-based; conditions: potato dextrose agar
# Procedure: as §1
# Proteus vulgaris HX 19 = test: Antimicrobial activity (MIC), agar medium; type: cell-based; conditions: heart infusion agar
# Procedure: as §1
# [5] = tested on: Pseudomonas aeruginosa IID 1052; test: Antimicrobial activity (MIC), agar medium; type: cell-based; conditions: heart infusion agar
# Procedure: as §1
# Saccharomyces cerevisiae = test: Antimicrobial activity (MIC), agar medium; type: cell-based; conditions: potato dextrose agar
# Procedure: as §1
# [6] = tested on: Staphylococcus aureus FDA 209 P; test: Antimicrobial activity (MIC), agar medium; type: cell-based; conditions: heart infusion agar
# Procedure: as §1
# [7] = tested on: Staphylococcus aureus Smith; test: Antimicrobial activity (MIC), agar medium; type: cell-based; conditions: heart infusion agar
# Procedure: as §1
# [8] = tested on: Staphylococcus aureus TRP-23; test: Antimicrobial activity (MIC), agar medium; type: cell-based; conditions: heart infusion agar
# Procedure: as §1
# [9] = tested on: Staphylococcus epidermidis TPR-25; test: Antimicrobial activity (MIC), agar medium; type: cell-based; conditions: heart infusion agar
# Procedure: as §1
# [10] = tested on: Staphylococcus epidermidis TRP-13; test: Antimicrobial activity (MIC), agar medium; type: cell-based; conditions: heart infusion agar
# Procedure: as §1
# [11] = tested on: Streptococcus faecalis ATCC 8043; test: Antimicrobial activity (MIC), agar medium; type: cell-based; conditions: heart infusion agar
# Procedure: as §1
# Trichophyton asteroides = test: Antimicrobial activity (MIC), agar medium; type: cell-based; conditions: potato dextrose agar
# Procedure: as §1
# Glomerella cingulata = test: Growth inhibitory activity on plant pathogenic microorganisms (colony diameter); type: cell-based; conditions: 100 mcg/ml, 28° C., 7 days, control medium 27.3 mm
# Piricularia sasakii = type: cell-based; conditions: 28° C., 7 days
# Gibberella fujikuroi = test: Growth inhibitory activity on plant pathogenic microorganisms (colony diameter); type: cell-based; conditions: 100 mcg/ml, 28° C., 7 days, control medium 27.6 mm
# Botrytis cinerea = test: as above; type: cell-based; conditions: 100 mcg/ml, 28° C., 7 days, control medium 47.7 mm
# [12] = tested on: Helminthosporium sigmoldeum; test: as above; type: cell-based; conditions: 100 mcg/ml, 28° C., 7 days, control medium 22.8 mm
# Toxoplasma tachyzoites = test: Antitoxoplasma activity in infected mice macrophage culture; type: cell-based, Toxoplasma (in mice macrophage); conditions: 0.1 ppm, 37° C., 48 hours
# Procedure: (§2) A mice macrophage cultured on a TC-199 medium containing 20% of calf serum was infected with Toxoplasma tachyzoites (hereinafter referred to as "T. tachyzoites") and cultured at 37° C. for about 1 hour. Thereafter, the resulting culture was washed with a phosphate buffer having pH 7.2 to wash out non-infected T. tachyzoites and an ethanol solution of antibiotic TM-531 was added to the medium at an appropriate concentration of antibiotic TM-531. The medium containing the protozoa and antibiotic TM-531 was incubated at 37° C. for 48 hours and then stained with Trypan Blue, and the number of T. tachyzoites per 100 macrophages was counted to determine the antitoxoplasma activity of antibiotic TM-531 as compared with the number of T. tachyzoites per 100 macrophages in the control medium containing no antibiotic TM-531.
# macrophage = test: Toxic sign on macrophage by optical microscope; type: cell-based; conditions: mice macrophage culture with TM-531
# Procedure: as §2
# Eimeria tenella = test: Activity against Eimeria tenella in infected chicks; type: in vivo, Eimeria tenella in male chicks (white leghorn); conditions: 0.01% by weight in feed, 8 days after infection
# Procedure: Male chicks (white leghorn species) immediately after hatching were fed with a mixed feed for chicks containing no anti-coccidium agent until the test started. On the 8th day of feeding, health conditions of the test chicks were observed and the body weight was determined thereby dividing the test chicks into three groups, each group comprising 10 chicks and having an equal distribution of body weight. The test group was fed with a mixed feed for chicks containing 0.01% by weight of antibiotic TM-531 and the infected control group and the healthy group were fed with the same mixed feed but containing no antibiotic TM-531. On the 48th hour of feeding, each of chicks of the test group and the infected control group was infected with 9×10^4 mature oocysts of Eimeria tenella by oral administration. Eight days after infection, body weight increase (%), mortality (%) and O.P.G. [The number of oocysts (×10^4) present in 1 g of the content of caecum] were determined, and faeces conditions were observed and compared with those of the healthy group to determine the activity of antibiotic TM-531 against Eimeria tenella.
# Solubility = type: physicochemical
# [13] = tested on: gram-positive and plant pathogenic microorganisms; test: Physiological properties: growth inhibitory activity; conditions: in words
# protozoa = test: Physiological properties: activity on protozoa; conditions: protozoa as hog dysentery, coccidium, toxoplasma, trypanosome, malaria, etc.; in words
# [14] = tested on: gram-negative bacteria and yeasts; test: Physiological properties: activity on gram-negative bacteria and yeasts; conditions: in words
structure (smiles),measurement,setting,value
COC1CCC(OC2CC(C3(C)CCC4(CC(O)C(C)C(C(C)/C=C(\C)C(=O)C(C)CC(C)C(=O)O)O4)O3)OC3(OC(C4OC(C)(O)C(C)CC4C)CC3C)C2C)OC1C (centres unmarked) [TM-531],Minimum Inhibitory Concentration,[1],> 100 µg/mL
same,Minimum Inhibitory Concentration,Bacillus licheniformis,1.56 µg/mL
same,Minimum Inhibitory Concentration,[2],1.56 µg/mL
same,Minimum Inhibitory Concentration,Candida albicans,> 100 µg/mL
same,Minimum Inhibitory Concentration,Corynebacterium xerosis,1.56 µg/mL
same,Minimum Inhibitory Concentration,[3],> 100 µg/mL
same,Minimum Inhibitory Concentration,Micrococcus luteus NIHJ,3.13 µg/mL
same,Minimum Inhibitory Concentration,[4],> 100 µg/mL
same,Minimum Inhibitory Concentration,Proteus vulgaris HX 19,> 100 µg/mL
same,Minimum Inhibitory Concentration,[5],> 100 µg/mL
same,Minimum Inhibitory Concentration,Saccharomyces cerevisiae,> 100 µg/mL
same,Minimum Inhibitory Concentration,[6],1.56 µg/mL
same,Minimum Inhibitory Concentration,[7],6.25 µg/mL
same,Minimum Inhibitory Concentration,[8],3.13 µg/mL
same,Minimum Inhibitory Concentration,[9],3.13 µg/mL
same,Minimum Inhibitory Concentration,[10],3.13 µg/mL
same,Minimum Inhibitory Concentration,[11],6.25 µg/mL
same,Minimum Inhibitory Concentration,Trichophyton asteroides,> 100 µg/mL
same,"Colony Diameter, TM-531 Containing Medium",Glomerella cingulata,13.4 mm
same,"Colony Diameter, TM-531 Containing Medium",Piricularia sasakii,63.0 mm
same,"Colony Diameter, TM-531 Containing Medium",Gibberella fujikuroi,20.2 mm
same,"Colony Diameter, TM-531 Containing Medium",Botrytis cinerea,46.7 mm
same,"Colony Diameter, TM-531 Containing Medium",[12],15.4 mm
same,"Percent Macrophage infected with T. tachyzoites, 1 ~ 5/cell","Toxoplasma tachyzoites; T. tachyzoites 1 ~ 5/cell, control medium 30.8",0%
same,"Percent Macrophage infected with T. tachyzoites, ≥6/cell","Toxoplasma tachyzoites; T. tachyzoites ≥6/cell, control medium 22.4",0%
same,toxic sign on macrophage,macrophage,no toxic sign on macrophage
same,O.P.G. (number of oocysts present in 1 g of the content of caecum),"Eimeria tenella; infected control 17.3, healthy control 0",0 × 10^4
same,Mortality,"Eimeria tenella; infected control 60, healthy control 0",0%
same,Body Weight Increase,"Eimeria tenella; infected control 77.0, healthy control 100.0",105.1%
same,Faeces Conditions,"Eimeria tenella; infected control loose passage 100%, hemafecial 80%",Normal
same,Solubility in organic solvents,"Solubility; methanol, ethanol, acetone, ethyl acetate, diethyl ether, benzene, chloroform, hexane and petroleum ether","soluble in methanol, ethanol, acetone, ethyl acetate, diethyl ether, benzene, chloroform, hexane and petroleum ether"
same,Solubility in water,Solubility; water,insoluble in water
same,growth inhibitory activity,[13],exhibits growth inhibitory activity
same,effect on protozoa,protozoa,effective on protozoa
same,effect on gram-negative bacteria and yeasts,[14],ineffective on gram-negative bacteria and yeasts
